Source: paper PMC8624998, “Synthesis and Antiproliferative Evaluation of 3-Chloroazetidin-2-ones with Antimitotic Activity: Heterocyclic Bridged Analogues of Combretastatin A-4” (Pharmaceuticals, 2021)
Where two headings read alike, the source gives them in different places.

Columns and labels:
Assay type in all cases: cell-based
A549/ATCC = test: NCI-60 5 dose screen, NSC Lung Cancer; conditions: Homo sapiens
NCI-H332M = test: NCI-60 5 dose screen, NSC Lung Cancer; conditions: Homo sapiens
COLO205 = test: NCI-60 5 dose screen, Colon Cancer; conditions: Homo sapiens, COLO 205
SNB-75 = test: NCI-60 5 dose screen, CNS Cancer; conditions: Homo sapiens
LOX IMV1 = test: NCI-60 5 dose screen, Melanoma; conditions: Homo sapiens
MALME-3M = test: NCI-60 5 dose screen, Melanoma; conditions: Homo sapiens
SK-MEL-2 = test: NCI-60 5 dose screen, Melanoma; conditions: Homo sapiens
UACC-62 = test: NCI-60 5 dose screen, Melanoma; conditions: Homo sapiens
OVCAR-4 = test: NCI-60 5 dose screen, Ovarian Cancer; conditions: Homo sapiens
786-0 = test: NCI-60 5 dose screen, Renal Cancer; conditions: Homo sapiens
UO-31 = test: NCI-60 5 dose screen, Renal Cancer; conditions: Homo sapiens
MCF-7 = test: NCI-60 5 dose screen, Breast Cancer; conditions: Homo sapiens, MCF7
HL-60 cells = test: Cell viability assay, antiproliferative activity
Procedure: (§1) […]. The corresponding values for 10e in these cell lines were 161 nM (HL-60), 55 nM (SW480) and 135 nM (HT-29). […] […]. SW480 colon cells expressed low levels of the UDP-glucuronosyltransferase (UGT) protein compared to expression levels in HT-29 cells. […] […].
(§2) The human breast carcinoma cell line MCF-7 was purchased from the European Collection of Animal Cell Cultures (ECACC). Triple negative breast cancer Hs578T cells and its invasive variant Hs578Ts(i)8 were a kind gift from Dr. Susan McDonnell, School of Chemical and Bioprocess Engineering, University College Dublin. U266 cells were a gift from Dr. Tony McElligott, School of Medicine, St James’s Hospital, Trinity College Dublin. HT-29 cells were purchased from the European Collection of Cell Cultures (originating from a human adenocarcinoma of the colon). The human breast carcinoma cell line MDA-MB-231 and the HL-60 cells derived from a patient with acute myeloid leukaemia were both obtained from ECACC (Salisbury, UK). The SW-480 cells were a kind gift from Dr. Brian Flood, School of Biochemistry and Immunology, Trinity College Dublin. HEK-293T (normal epithelial embryonic kidney cells) were cultured in Dulbecco’s Modified Eagle’s Medium (DMEM) with GlutaMAXTM-I in the absence of non-essential amino acids. Human breast cancer MCF-7 cells and multiple myeloma U266 cells were cultured in Minimum Essential Media (MEM) with GlutaMAX™-I, supplemented with 1% (v/v) non-essential amino acids, 10% 2(v/v) foetal bovine serum (FBS) and 1% (v/v) penicillin/streptomycin 5000 U/mL. MDA-MB-231 cells were maintained in DMEM supplemented with 10% (v/v) foetal bovine serum, 2 mM L-glutamine and 100 μg/mL penicillin/streptomycin (complete medium). Colon cancer HT-29 and SW-480 and triple negative breast cancer Hs578T and its invasive variant Hs578T8i were cultured in DMEM with GlutaMAX™-I, with the same supplement in the absence of non-essential amino acids. Leukaemia HL-60 cancer cells were cultured in Roswell Park Memorial Institute Media (RPMI-1640) with GlutaMAX™-I, supplemented with 10% FCS media, and 100 μg/mL penicillin/streptomycin as above. Cell numbers were monitored using a haemocytometer. Cell culture flasks were incubated in a humidified incubator (5% CO2/95% air) at 37 °C. All cell lines were sub-cultured three times per week with trypsinisation using TrypLE Express (1X) required for adherent cell lines.
(§3) . All stock solutions and serial dilution in ethanol/DMSO were stored at -20 °C. All cells were seeded at a density of 2.5 × 10^4 cells/mL in a 96-well plate (200 μL per well). The cells were incubated in a […] atmosphere at 37 °C for 24 h, then treated with test compound (2 μL of stock solutions per 200-microlitre well) in ethanol to obtain a concentration range of 1 nM–200 μM for the study. The plates were then re-incubated for a further 72 h. Control wells contained an equivalent volume of the vehicle ethanol or DMSO (1% v/v). MTT cell viability assay: The culture medium was removed, and the cells were washed with phosphate buffered saline (PBS, […]). MTT (dissolved in PBS, […]) was added to obtain a final concentration of MTT (1 mg/mL). Cells were incubated at 37 °C for 3 h in the dark. Solubilisation was commenced by the addition of DMSO ([…]) and the cells were maintained at 20 °C in the dark for 20 min before reading the absorbance to ensure complete colour diffusion. The absorbance value of control cells (no added compound) was set to 100% cell viability and absorbance versus cell density per well was determined to assess cell viability using Graph-Pad Prism software. AlamarBlue cell viability assay: Cells were seeded in 96-well plates (e.g., MCF-7, 5 × 10^3 cells/well) and (HT-29 cells, 1 × 10^3 cells/well) and (HL-60 cells, 1 × 10^4 cells/well) with a total volume per well of 200 µL. After 24 h, cells were treated in triplicate with serial dilutions of CA-4 or β-lactam analogues (0.001–100 μM), medium alone or vehicle (1% ethanol (v/v)). […]

HT-29 cells = test: Cell viability assay, antiproliferative activity
Procedure: as §1, §2, §3

CAKI-1 = test: NCI-60 5 dose screen, Renal Cancer; conditions: Homo sapiens
[1] = MCF-7, NCI screen, read-out: GI50 in MCF-7 cells
[2] = Homo sapiens, HL-60, 72 h; read-out: HL-60 IC50
[3] = Homo sapiens, HT-29, 72 h; read-out: HT-29 IC50

| IC50 (HL-60 cells; [2]) | IC50 (HT-29 cells; [3]) | Structure (SMILES) | GI50 (A549/ATCC; A549/ATCC, read-out: GI50) | GI50 (NCI-H332M) | GI50 (COLO205; COLO205, read-out: GI50) | GI50 (SNB-75; read-out: GI50) | GI50 (LOX IMV1; read-out: GI50) | GI50 (MALME-3M; read-out: GI50) | GI50 (SK-MEL-2; read-out: GI50) | GI50 (UACC-62; read-out: GI50) | GI50 (OVCAR-4; read-out: GI50) | GI50 (786-0; read-out: GI50) | GI50 (UO-31; read-out: GI50) | GI50 (MCF-7; [1]) | GI50 (MCF-7; MCF-7, read-out: GI50) | further results |
| --- | --- | --- | --- | --- | --- | --- | --- | --- | --- | --- | --- | --- | --- | --- | --- | --- |
| – | – | CCSc1ccc(C2C(Br)C(=O)N2c2cc(OC)c(OC)c(OC)c2)cc1 (stereo not drawn) [Compound 16d, 3-Bromo-4-(4-(ethylthio)phenyl)-1-(3,4,5-trimethoxyphenyl)azetidin-2-one] | 598 nM | 7370 nM | 230 nM | 509 nM | 834 nM | 11300 nM | 484 nM | 97.2 nM | 1430 nM | 340 nM | 342 nM | 44 nM | 44.7 nM | – |
| 161 ± 20 nM | 135 ± 60 nM | COc1ccc([C@H]2[C@H](Cl)C(=O)N2c2cc(OC)c(OC)c(OC)c2)cc1 (relative stereo) [Compound 10e trans, Trans-3-chloro-1-(3,4,5-trimethoxyphenyl)-4-(4-methoxyphenyl) azetidin-2-one] | 78.5 nM | 962 nM | 49.2 nM | 38.2 nM | 67.6 nM | 88.4 nM | 45 nM | 51.8 nM | 106 nM | 69.4 nM | 64.4 nM | 34 nM | 34.3 nM | GI50 (CAKI-1; read-out: GI50): 122 nM |
| – | – | COc1ccc(C2N(c3cc(OC)c(OC)c(OC)c3)C(=O)C2(Cl)Cl)cc1O (stereo not drawn) [Compound 11n, 3,3-Dichloro-4-(3-hydroxy-4-methoxyphenyl)-1-(3,4,5-trimethoxyphenyl)azetidin-2-one] | – | – | – | – | – | – | – | – | – | – | – | – | – | IC50 (HL-60 cells; Homo sapiens, HL-60, 72 h, read-out: HL-60 IC50): 16 ± 5 nM; IC50 (HT-29 cells; Homo sapiens, HT-29, 72 h, read-out: HT-29 IC50): 941 ± 60 nM; GI50 (A549/ATCC; A549): 38.2 nM; GI50 (COLO205): 2910 nM; GI50 (SNB-75): 19.9 nM; GI50 (LOX IMV1): 41.5 nM; GI50 (MALME-3M): 68.5 nM; GI50 (SK-MEL-2): 31.6 nM; GI50 (UACC-62): 42.2 nM; GI50 (OVCAR-4): 74.1 nM; GI50 (786-0): 41.2 nM; GI50 (CAKI-1): 126 nM; GI50 (UO-31): 82.1 nM; GI50 (MCF-7): 31 nM |
| 10 ± 8 nM | 631 ± 30 nM | COc1ccc(C2C(Cl)C(=O)N2c2cc(OC)c(OC)c(OC)c2)cc1O (stereo not drawn) [Compound 10n, 3-Chloro-4-(3-hydroxy-4-methoxy-phenyl)-1-(3,4,5-trimethoxyphenyl)azetidin-2-one] | – | – | – | – | – | – | – | – | – | – | – | – | – | – |

| Structure (SMILES) | IC50 (HL-60 cells; [2]) | IC50 (HT-29 cells; [3]) | GI50 (A549/ATCC; A549/ATCC, read-out: GI50) | GI50 (NCI-H332M) | GI50 (COLO205; COLO205, read-out: GI50) | GI50 (SNB-75; read-out: GI50) | GI50 (LOX IMV1; read-out: GI50) | GI50 (MALME-3M; read-out: GI50) | GI50 (SK-MEL-2; read-out: GI50) | GI50 (UACC-62; read-out: GI50) | GI50 (OVCAR-4; read-out: GI50) | GI50 (786-0; read-out: GI50) | GI50 (UO-31; read-out: GI50) | GI50 (MCF-7; [1]) | GI50 (MCF-7; MCF-7, read-out: GI50) | further results |
| --- | --- | --- | --- | --- | --- | --- | --- | --- | --- | --- | --- | --- | --- | --- | --- | --- |
| COc1ccc(/C=C\c2cc(OC)c(OC)c(OC)c2)cc1O [CA-4, Combretastatin A-4] | 1.9 ± 0.5 nM | – | – | – | – | – | – | – | – | – | – | – | – | – | – | IC50 (HL-60 cells; Homo sapiens, HL-60; read-out: HL-60 IC50): 2 nM; IC50 (HT-29 cells; Homo sapiens, HT-29; read-out: HT-29 IC50): 4160 nM |
